The values below come from patent publication US20190350200A1, “SYNERGISTIC ANTIMICROBIAL COMPOSITIONS” (JUBILANT LIFE SCIENCES LIMITED, priority 2016, published 2019).

Each structure is given as a SMILES string.

The term zone of inhibition denotes the size of the clear area around the sample on an inoculated plate.

In the experiment the test system is Malassezia furfur. Briefly: Zone of inhibition, disc diffusion method. The experiment is classed as cell-based. To be noted: antimicrobial active alone, 37° C., 48 hrs; for zone of inhibition at […] strength / zone of inhibition at 0.5 % strength / zone of inhibition at 1 % strength / zone of inhibition at 2 % strength: Malassezia furfur; for zone of inhibition at […] strength: 0.25 % w/w. How it is done:
The antimicrobial efficacy was determined by measuring zone of inhibition using disc diffusion method against E. Coli, Malassezia furfur, Pseudomonas, Aspergillus niger, Staphylococcus and Candida. […] The culture plates were incubated at 37° C. for 48 hrs and anti-microbial activity was evaluated by observing an area of no growth around the disc. An area of no growth around the swatch is known as a zone of inhibition.
(A growth-free zone around the sample is the usual read-out of agar diffusion tests.)

In the case of `Cc1cc(C2CCCCC2)n(O)c(=O)c1` [Ciclopirox Olamine], the zone of inhibition at […] strength worked out at 18 mm. Besides, the zone of inhibition at 0.5 % strength (0.5 % w/w) turned out to be 18 mm. This compound also showed a zone of inhibition at 1 % strength (1 % w/w) of 20 mm. This compound also returned a zone of inhibition at 2 % strength (2 % w/w) of 22 mm.
`CC(C)(C)C(=O)C(Oc1ccc(Cl)cc1)n1ccnc1` (stereo not drawn) [Climbazole] had a zone of inhibition at […] strength of 20 mm. Moreover, the zone of inhibition at 0.5 % strength (0.5 % w/w) came out at 40 mm. The compound further showed a zone of inhibition at 1 % strength (1 % w/w) of 40 mm. Moreover, where the note is “2 % w/w”, the zone of inhibition at 2 % strength was determined as 42 mm.
`CC(=O)N1CCN(c2ccc(OCC3COC(Cn4ccnc4)(c4ccc(Cl)cc4Cl)O3)cc2)CC1` (stereo not drawn) [Ketoconazole] gave a zone of inhibition at […] strength of 40 mm. For the setting “0.5 % w/w”, the zone of inhibition at 0.5 % strength was found to be 40 mm. In addition, the zone of inhibition at 1 % strength (1 % w/w) was found to be 40 mm. Where the note is “2 % w/w”, this compound returned a zone of inhibition at 2 % strength of 40 mm.
Consider `Cc1cc(CC(C)CC(C)(C)C)n(O)c(=O)c1.NCCO` (stereo not drawn) [Octopirox], for which the Zone of inhibition (0.5 % w/w) came to 14 mm, the Zone of inhibition (1 % w/w) is 18 mm, the Zone of inhibition (2 % w/w) was determined as 20 mm and the Zone of inhibition ([…] w/w) is 10 mm.
As to `O=C(O)c1ccccc1O` [Salicylic Acid], for the setting “1 % w/w”, the zone of inhibition at 1 % strength turned out to be 4 mm. The compound also registered a zone of inhibition at 2 % strength (2 % w/w) of 6 mm.
